According to ChEMBL document CHEMBL2010744, “Pyridyl aminothiazoles as potent inhibitors of Chk1 with slow dissociation rates” (Bioorg Med Chem Lett, 2012):
The source made the active and inactive calls. The calls are words filed in the database; no cut-off is given here.

What follows are compounds tested against T1, Serine/threonine-protein kinase Chk1 (Homo sapiens, UniProt O14757) (assay: Competitive inhibition of Chk1 in presence of higher ATP levels).
T1 sequence (O14757 whole entry): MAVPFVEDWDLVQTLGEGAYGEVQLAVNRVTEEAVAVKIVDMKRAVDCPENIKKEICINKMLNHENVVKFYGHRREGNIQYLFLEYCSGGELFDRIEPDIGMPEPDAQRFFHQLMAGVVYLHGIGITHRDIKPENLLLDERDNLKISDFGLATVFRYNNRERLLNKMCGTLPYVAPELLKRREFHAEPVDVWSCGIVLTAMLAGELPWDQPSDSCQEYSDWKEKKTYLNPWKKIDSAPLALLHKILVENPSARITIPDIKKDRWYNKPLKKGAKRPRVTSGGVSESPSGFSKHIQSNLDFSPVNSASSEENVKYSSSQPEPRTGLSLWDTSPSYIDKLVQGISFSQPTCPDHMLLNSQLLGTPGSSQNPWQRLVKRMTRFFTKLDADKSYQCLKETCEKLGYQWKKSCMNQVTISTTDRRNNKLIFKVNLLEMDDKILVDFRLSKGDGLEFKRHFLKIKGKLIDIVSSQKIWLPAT

Structure (SMILES)	IC50 [nM]
NCCNC(=O)c1cncc(-c2cnc(Nc3cc(CN4CCOCC4)ccn3)s2)c1	0.4
CS(=O)(=O)N1CCN(c2ccnc(Nc3ncc(-c4cncc(C(=O)NCCN)c4)s3)c2)CC1	0.03
Cc1ccc(-c2cnc(Nc3cc(N4CCNCC4)ccn3)s2)cn1	37
Cc1ncc(-c2cnc(Nc3cc(N4CCNCC4)ccn3)s2)cn1	29
CS(=O)(=O)N1CCN(c2ccnc(Nc3ncc(-c4cncnc4)s3)c2)CC1	47
Cc1ccc(-c2cnc(Nc3cc(N4CCN(S(C)(=O)=O)CC4)ccn3)s2)cn1	113
NCCNC(=O)c1cncc(-c2cnc(Nc3cc(N4CCNCC4)ccn3)s2)c1	0.05
Brc1cccc(-c2cnc(Nc3cc(N4CCNCC4)ccn3)s2)c1	> 1050
Cc1ncc(-c2cnc(Nc3cccc(NCCCN)n3)s2)cn1	29
NCCNC(=O)c1cncc(-c2cnc(Nc3cc(N4CCC(F)(F)CC4)ccn3)s2)c1	0.05
c1ccc(-c2cnc(Nc3cc(N4CCNCC4)ccn3)s2)cc1	520
N#Cc1cncc(-c2cnc(Nc3cc(N4CCNCC4)ccn3)s2)c1	35
CC(=O)N1CCN(c2ccnc(Nc3ncc(-c4ccc(C)nc4)s3)c2)CC1	206
CC(=O)N1CCN(c2ccnc(Nc3ncc(-c4cncc(C(=O)NCCN)c4)s3)c2)CC1	0.03
OCC1CN(c2ccnc(Nc3ncc(-c4cccnc4)s3)c2)CCO1 (stereo not drawn)	49
Cc1ncc(-c2cnc(Nc3cccc(N4CCNCC4)n3)s2)cn1	120
OCCNc1ccnc(Nc2ncc(-c3cncnc3)s2)c1	90

Further lines, results first:

IC50 [nM]	Structure (SMILES)
1.4	NCCCNC(=O)c1cncc(-c2cnc(Nc3cc(N4CCOCC4)ccn3)s2)c1
19	c1cncc(-c2cncc(-c3cnc(Nc4cc(N5CCOCC5)ccn4)s3)c2)c1
1	CNCCNC(=O)c1cncc(-c2cnc(Nc3cc(N4CCOCC4)ccn3)s2)c1
350	COc1ncccc1-c1cncc(-c2cnc(Nc3cc(N4CCOCC4)ccn3)s2)c1
0.27	NCCC(=O)c1cncc(-c2cnc(Nc3cc(N4CCOCC4)ccn3)s2)c1
35	c1cc(N2CCOCC2)cc(Nc2ncc(-c3cncc(-c4cn[nH]c4)c3)s2)n1
37	c1ncc(-c2cncc(-c3cnc(Nc4cc(N5CCOCC5)ccn4)s3)c2)cn1
60	COc1ncc(-c2cncc(-c3cnc(Nc4cc(N5CCOCC5)ccn4)s3)c2)cn1
440	N#Cc1cncc(-c2cnc(Nc3cc(N4CCOCC4)ccn3)s2)c1
6	OCC#Cc1cncc(-c2cnc(Nc3cc(N4CCOCC4)ccn3)s2)c1
320	NC/C=C/c1cncc(-c2cnc(Nc3cc(N4CCOCC4)ccn3)s2)c1
60	Cc1ncc(-c2cnc(Nc3cc(N4CCOCC4)ccn3)s2)cn1
8	c1cc(N2CCNCC2)cc(Nc2ncc(-c3cncc(-c4cn[nH]c4)c3)s2)n1
12	NCCCc1cncc(-c2cnc(Nc3cc(N4CCOCC4)ccn3)s2)c1

Each compound was assayed against T2, Serine/threonine-protein kinase Chk1 (Homo sapiens) (UniProt O14757) (assay: Competitive inhibition of immobilized Chk1 at 11 nM incubated for 30 mins followed by 24 hrs washout by HTRF assay in presence of 100 uM ATP).
T2 sequence (whole entry): T1 sequence (O14757 whole entry)

inhibition	Structure (SMILES)
Active	NCCNC(=O)c1cncc(-c2cnc(Nc3cc(N4CCC(F)(F)CC4)ccn3)s2)c1

The compounds below were run against T2, Serine/threonine-protein kinase Chk1 (Homo sapiens) (assay: Inhibition of immobilized Chk1 at 11 nM incubated for 30 mins followed by 24 hrs washout by HTRF assay).

inhibition	Structure (SMILES)
Active	NCCNC(=O)c1cncc(-c2cnc(Nc3cc(N4CCC(F)(F)CC4)ccn3)s2)c1
